Assay results published in ChEMBL document CHEMBL1153126, “Substituted tetrahydro-beta-carbolines as potential agents for the treatment of human papillomavirus infection” (Bioorg Med Chem Lett, 2010).

How the values were obtained:
[1] = test system: Human papillomavirus type 16; experiment: Antiviral activity against Human papillomavirus - 16 infected in human W12-20850 cells by hybrid capture method; format: functional, organism-based; settings: Human papillomavirus 16, W12-20850
[2] = Cytotoxicity against HFF cells; format: cell-based; settings: human
[3] = Therapeutic index, CC50 for HFF cells to IC50 for Human papillomavirus - 16; format: cell-based; settings: read-out: TI
[4] = Oral bioavailability in mouse at 5 mg/kg; format: ADME, organism-based; settings: in vivo
[5] = Half life in rat at 1 mg/kg, iv; format: ADME, organism-based; parameters: dose 1 mg/kg, route intravenous; settings: in vivo
[6] = Clearance in rat at 1 mg/kg, iv; format: ADME, organism-based; parameters: dose 1 mg/kg, route intravenous; settings: in vivo

Structure (SMILES): O=C(OCC1c2[nH]c3ccccc3c2CCN1C(=O)CCc1ccccc1)N1CCCC1 (stereo unspecified)
- IC50 [1]: > 100 µM
- CC50 [2]: > 100 µM

Structure (SMILES): COc1ccc2c3c([nH]c2c1)C(c1ccc(C)cc1)N(C(=O)CCc1ccccc1)CC3 (stereo unspecified)
- IC50 [1]: 5.8 µM
- selectivity ratio [3]: > 100
- CC50 [2]: > 100 µM

Structure (SMILES): Cc1ccc([C@H]2c3[nH]c4ccc(Cl)cc4c3CCN2C(=O)CCc2ccccc2)cc1
- bioavailability [4]: 73%
- half-life [5]: 6.2 h
- clearance [6]: 3.6 mL/min/kg
- IC50 [1]: 0.023 µM
- CC50 [2]: > 100 µM

Structure (SMILES): CC(C)C[C@@H]1c2[nH]c3ccc(Cl)cc3c2CCN1C(=O)CCc1ccccc1
- IC50 [1]: 0.88 µM
- CC50 [2]: > 100 µM

Structure (SMILES): O=C(CCc1ccccc1)N1CCc2c([nH]c3ccccc23)C1CCc1ccccc1 (stereo unspecified)
- IC50 [1]: 2.7 µM
- CC50 [2]: > 100 µM

Structure (SMILES): Cc1ccc(C2c3[nH]c4ccccc4c3CCN2C(=O)/C=C/c2ccccc2)cc1 (stereo unspecified)
- IC50 [1]: 2.3 µM
- CC50 [2]: > 100 µM

Structure (SMILES): O=C(CCc1ccccc1)N1CCc2c([nH]c3ccccc23)C1c1ccccc1 (stereo unspecified)
- IC50 [1]: 1.2 µM
- CC50 [2]: > 100 µM

Structure (SMILES): O=C(CCc1ccccc1)N1CCc2c([nH]c3ccccc23)C1COc1ccccc1 (stereo unspecified)
- IC50 [1]: 72 µM
- CC50 [2]: > 100 µM

Structure (SMILES): O=C(C1c2[nH]c3ccccc3c2CCN1C(=O)CCc1ccccc1)N1CCCC1 (stereo unspecified)
- IC50 [1]: > 100 µM
- CC50 [2]: > 100 µM

Structure (SMILES): Cc1ccc(C2c3[nH]c4ccccc4c3CCN2C(=O)C#Cc2ccccc2)cc1 (stereo unspecified)
- IC50 [1]: 20 µM
- CC50 [2]: > 100 µM

Structure (SMILES): COc1ccc(S(=O)(=O)N2CCc3c([nH]c4ccccc34)C2c2ccc(C)cc2)cc1 (stereo unspecified)
- IC50 [1]: 66 µM
- CC50 [2]: > 100 µM

Structure (SMILES): CC(C)CC1c2[nH]c3ccccc3c2CCN1C(=O)CCc1ccccc1 (stereo unspecified)
- IC50 [1]: 0.33 µM
- CC50 [2]: 22 µM

Structure (SMILES): Cc1ccc(C2c3[nH]c4ccccc4c3CCN2C(=O)CCc2ccccc2)cc1 (stereo unspecified)
- IC50 [1]: 1.3 µM
- selectivity ratio [3]: 100
- CC50 [2]: > 100 µM

Structure (SMILES): COC(=O)N1CCc2c([nH]c3ccccc23)C1c1ccc(C)cc1 (stereo unspecified)
- IC50 [1]: 1.7 µM
- CC50 [2]: 31 µM

Structure (SMILES): Cc1ccc(C2c3[nH]c4ccc(C)cc4c3CCN2C(=O)CCc2ccccc2)cc1 (stereo unspecified)
- IC50 [1]: 0.35 µM
- selectivity ratio [3]: > 100
- CC50 [2]: > 100 µM

Structure (SMILES): O=C(CCc1ccccc1)N1CCc2c([nH]c3ccccc23)C1c1cccnc1 (stereo unspecified)
- IC50 [1]: > 100 µM
- CC50 [2]: > 100 µM

Structure (SMILES): Cc1ccc(C2c3[nH]c4ccc(Cl)cc4c3CCN2C(=O)CCc2ccccc2)cc1 (stereo unspecified)
- IC50 [1]: 0.062 µM
- selectivity ratio [3]: > 100
- CC50 [2]: > 100 µM

Structure (SMILES): O=C(CCc1ccccc1)N1CCc2c([nH]c3ccccc23)C1CN1CCCC1 (stereo unspecified)
- CC50 [2]: 16 µM

Structure (SMILES): O=C(CCc1ccccc1)N1CCc2c([nH]c3ccccc23)C1COCc1ccccc1 (stereo unspecified)
- IC50 [1]: 7.3 µM
- CC50 [2]: > 100 µM

Structure (SMILES): Cc1ccc(C2c3[nH]c4cc(F)ccc4c3CCN2C(=O)CCc2ccccc2)cc1 (stereo unspecified)
- IC50 [1]: 1.7 µM
- selectivity ratio [3]: > 100
- CC50 [2]: > 100 µM

Structure (SMILES): Cc1ccc([C@@H]2c3[nH]c4ccc(Cl)cc4c3CCN2C(=O)CCc2ccccc2)cc1
- IC50 [1]: 7.7 µM
- CC50 [2]: > 100 µM

Structure (SMILES): Cc1ccc(C2c3[nH]c4ccccc4c3CCN2C(=O)CCc2cccnc2)cc1 (stereo unspecified)
- IC50 [1]: 18 µM
- CC50 [2]: 94 µM

Structure (SMILES): Cc1ccc(C2c3[nH]c4ccccc4c3CCN2S(C)(=O)=O)cc1 (stereo unspecified)
- IC50 [1]: 23 µM
- CC50 [2]: > 100 µM

Structure (SMILES): Cc1ccc(C2c3[nH]c4ccccc4c3CCN2CC(C)C)cc1 (stereo unspecified)
- IC50 [1]: 25 µM
- CC50 [2]: 50 µM

Structure (SMILES): Cc1ccc(C2c3[nH]c4ccccc4c3CCN2C(=O)OCc2ccccc2)cc1 (stereo unspecified)
- IC50 [1]: 0.9 µM
- CC50 [2]: > 100 µM

Structure (SMILES): CC(C)C[C@H]1c2[nH]c3ccc(Cl)cc3c2CCN1C(=O)CCc1ccccc1
- IC50 [1]: 0.018 µM
- CC50 [2]: > 100 µM

Structure (SMILES): Cc1ccc(C2c3[nH]c4ccc(F)cc4c3CCN2C(=O)CCc2ccccc2)cc1 (stereo unspecified)
- IC50 [1]: 0.44 µM
- selectivity ratio [3]: > 100
- CC50 [2]: > 100 µM

Structure (SMILES): Cc1ccc(C2c3[nH]c4c(C)cccc4c3CCN2C(=O)CCc2ccccc2)cc1 (stereo unspecified)
- IC50 [1]: 2.2 µM
- selectivity ratio [3]: > 100
- CC50 [2]: > 100 µM

Structure (SMILES): Cc1ccc(C2c3[nH]c4ccccc4c3CCN2C(=O)Oc2cccc3ccccc23)cc1 (stereo unspecified)
- IC50 [1]: 23 µM
- CC50 [2]: > 100 µM

Structure (SMILES): Cc1ccc(C2c3[nH]c4ccccc4c3CCN2Cc2ccccc2)cc1 (stereo unspecified)
- IC50 [1]: 5.8 µM
- CC50 [2]: 94 µM

Structure (SMILES): COc1ccc2[nH]c3c(c2c1)CCN(C(=O)CCc1ccccc1)C3c1ccc(C)cc1 (stereo unspecified)
- IC50 [1]: 0.57 µM
- selectivity ratio [3]: > 100
- CC50 [2]: > 100 µM

Structure (SMILES): Cc1ccc(C2c3[nH]c4ccccc4c3CCN2C(=O)CCN(C)C)cc1 (stereo unspecified)
- IC50 [1]: 15 µM
- CC50 [2]: 40 µM

Structure (SMILES): COC(=O)C1c2[nH]c3ccccc3c2CCN1C(=O)CCc1ccccc1 (stereo unspecified)
- IC50 [1]: 20 µM
- CC50 [2]: > 100 µM
